The test system of one series is MIA PaCa-2 cells. As to the kind of experiment: Cell viability assay (MTT) in MIA PaCa-2 cells. As to conditions: Homo sapiens, antiproliferative activity, 72 h. The series is classed as cell-based. The procedure, abridged: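 MIA PaCa-2 cells exposed 72 h at 37° C to 2-fold serial compound dilutions from 100 μM final, 0.5% DMSO, in triplicate. Viability by MTT (3 h), formazan read at 570 nm minus 650 nm; EC50 from curve fit.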

Series [1] in a line: Thermodynamic solubility assay. The series is classed as physicochemical. As to conditions: aqueous buffer, thermodynamic from solid, DPBS pH=7.4, 48 h, ambient temperature. As for the experimental part:
Briefly, a saturated solution was made by adding DPBS to the solid compound. The mixture was shaken at 200 rpm for 48 h in a MaxQ 6000 orbital shaker at ambient temperature to allow equilibrium between the solid and dissolved compound. The suspension was then filtered through a 0.45 μm PVDF syringe filter and the filtrate was collected for analysis using UV spectrometry (SpectraMax M5e, Molecular Devices) at λ=240 nm.

The nature of series [2]: Microsomal stability assay, mouse liver microsomes. The series is classed as in vitro ADME. The conditions noted are these: pH 7.4; mouse liver microsomes 0.5 mg/mL, 1 mM NADPH, 1 μM compound; read-out: Microsomal Stability t1/2 Mouse. The procedure:
The in vitro microsomal stability assay was conducted in triplicate in mouse and human liver microsomal systems. In a typical incubation, a compound (typically 1 μM final concentration) was spiked into the reaction mixture containing 0.5 mg/mL of liver microsomal protein and 1 mM of NADPH in 0.1 M potassium phosphate buffer (pH 7.4) at 37° C. At various time points, 1 volume of reaction aliquot was taken and quenched with 3 volumes of acetonitrile with an appropriate internal standard. The samples were then vortexed and centrifuged at 14,000 rpm for 5 min. The supernatants were collected and analyzed by LC-MS/MS to determine the in vitro metabolic half-life (t1/2) and intrinsic clearance (CLint). Verapamil was used as a positive control.
Quantification and analysis of compounds in biological samples were carried out on an AB Sciex QTrap 5500 mass spectrometer coupled with an Agilent 1260 Infinity HPLC. The chromatographic separation of compounds was achieved using a Phenomenex Kinetex C18 column (50×2.1 mm, 2.6 μm), and MS/MS analysis was conducted using an ESI ion source with MRM detection. The MS/MS detection parameters including declustering potential (DP), entrance potential (EP), collision energy (CE), and collision cell exit potential (CXP) were optimized for each compound.

Values after ≈ are worked out from the molar mass of the structure shown.

In turn, `CNC(=O)c1cccc(Cn2nc(C)c(NC(=O)c3ccc(COc4ccc(C(F)(F)F)cc4)cc3)c2C)c1` [Compound D9c, 3-((3,5-Dimethyl-4-(4-((4-(trifluoromethyl)phenoxy)-methyl)benzamido)-1H-pyrazol-1-yl)methyl)-N-methylbenzamide] returned an EC50 in the series with MIA PaCa-2 cells of 800 nM. For the same compound, the solubility at 48 h in series [1] turned out to be 67.3 ± 5.2 µM (≈ 36.1 µg/mL). Further, in series [2], the half-life at 1 μM turned out to be 60 min.
